Assay results: ChEMBL document CHEMBL1201862, “PubChem BioAssay data set” (2004)
Active and inactive are the calls of the source.

Key:
[1] = biological target: Serine/threonine-protein phosphatase (Homo sapiens, UniProt Q9BPW0); experiment: PP5 phosphatase inhibitors, dose response, biochemical, fluorescence (AID 2395)
[2] = biological target: T1, Sentrin-specific protease 7 (Homo sapiens, UniProt Q9BQF6); format: functional;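 also: Luminescence-based dose-response confirmation of ultra-high-throughput screening hits, measuring inhibition of SENP7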
T1 sequence (Q9BQF6 whole entry): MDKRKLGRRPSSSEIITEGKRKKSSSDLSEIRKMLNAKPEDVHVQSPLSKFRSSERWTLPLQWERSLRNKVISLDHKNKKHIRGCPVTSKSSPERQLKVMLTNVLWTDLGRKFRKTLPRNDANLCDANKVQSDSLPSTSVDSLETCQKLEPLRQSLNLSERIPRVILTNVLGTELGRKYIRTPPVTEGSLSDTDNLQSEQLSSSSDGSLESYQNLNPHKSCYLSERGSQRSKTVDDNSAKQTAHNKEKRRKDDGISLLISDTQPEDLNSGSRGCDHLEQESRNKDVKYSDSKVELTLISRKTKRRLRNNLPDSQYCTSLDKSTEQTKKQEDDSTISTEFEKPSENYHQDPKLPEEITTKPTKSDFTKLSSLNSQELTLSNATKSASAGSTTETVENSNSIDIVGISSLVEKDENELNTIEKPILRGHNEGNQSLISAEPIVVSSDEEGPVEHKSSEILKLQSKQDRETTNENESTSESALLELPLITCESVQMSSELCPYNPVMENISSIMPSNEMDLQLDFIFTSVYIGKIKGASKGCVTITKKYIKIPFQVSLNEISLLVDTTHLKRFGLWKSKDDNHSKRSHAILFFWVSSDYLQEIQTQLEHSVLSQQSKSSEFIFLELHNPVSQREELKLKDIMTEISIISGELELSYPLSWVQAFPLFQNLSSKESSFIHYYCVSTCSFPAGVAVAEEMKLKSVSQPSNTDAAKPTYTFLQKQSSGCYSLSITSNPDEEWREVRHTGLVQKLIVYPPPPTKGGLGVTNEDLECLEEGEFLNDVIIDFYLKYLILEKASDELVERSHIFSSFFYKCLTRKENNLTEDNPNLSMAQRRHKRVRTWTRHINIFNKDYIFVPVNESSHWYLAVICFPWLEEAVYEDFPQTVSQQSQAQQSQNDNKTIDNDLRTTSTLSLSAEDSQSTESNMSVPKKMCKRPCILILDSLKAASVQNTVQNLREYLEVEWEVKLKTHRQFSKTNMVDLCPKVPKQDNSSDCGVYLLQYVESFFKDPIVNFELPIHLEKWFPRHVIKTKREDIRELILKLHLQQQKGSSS

Protein RecA = biological target: T2, Protein RecA (Mycobacterium tuberculosis, UniProt P9WHJ3); experiment: Fluorescence Cell-Free Homogeneous Dose Retest to Identify Inhibitors of RecA-Intein Splicing Activity. [Related pubchem assays (depositor defined):AID2097, AID2223, AID489010, AID492950]; format: functional
T2 sequence (P9WHJ3 whole entry): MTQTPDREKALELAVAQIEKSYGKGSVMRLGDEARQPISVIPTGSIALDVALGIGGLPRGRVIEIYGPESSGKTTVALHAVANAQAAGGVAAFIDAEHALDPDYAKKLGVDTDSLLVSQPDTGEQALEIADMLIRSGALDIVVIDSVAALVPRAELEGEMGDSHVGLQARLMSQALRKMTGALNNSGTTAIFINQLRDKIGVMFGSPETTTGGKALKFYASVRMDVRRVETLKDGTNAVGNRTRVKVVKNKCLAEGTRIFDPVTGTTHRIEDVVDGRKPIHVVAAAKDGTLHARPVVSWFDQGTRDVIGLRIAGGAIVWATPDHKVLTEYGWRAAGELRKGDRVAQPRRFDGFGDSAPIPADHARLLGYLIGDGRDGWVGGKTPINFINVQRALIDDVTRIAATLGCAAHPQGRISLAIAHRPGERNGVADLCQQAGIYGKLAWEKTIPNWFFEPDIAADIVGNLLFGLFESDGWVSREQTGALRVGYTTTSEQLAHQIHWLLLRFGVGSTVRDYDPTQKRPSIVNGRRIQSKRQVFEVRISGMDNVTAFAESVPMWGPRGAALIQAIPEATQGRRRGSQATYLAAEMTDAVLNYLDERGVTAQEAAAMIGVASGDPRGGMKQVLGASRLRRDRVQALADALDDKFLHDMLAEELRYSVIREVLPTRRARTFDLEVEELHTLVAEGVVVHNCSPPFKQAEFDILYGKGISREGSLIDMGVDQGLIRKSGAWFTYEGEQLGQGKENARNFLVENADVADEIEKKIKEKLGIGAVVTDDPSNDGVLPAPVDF

[3] = biological target: T3, Zinc finger protein mex-5 (Caenorhabditis elegans, UniProt Q9XUB2); experiment: MEX-5/TCR-2 RNA interaction inhibitors, dose response, biochemical, C. elegans, fluorescence polarization (AID 1960)
T3 sequence (Q9XUB2 whole entry): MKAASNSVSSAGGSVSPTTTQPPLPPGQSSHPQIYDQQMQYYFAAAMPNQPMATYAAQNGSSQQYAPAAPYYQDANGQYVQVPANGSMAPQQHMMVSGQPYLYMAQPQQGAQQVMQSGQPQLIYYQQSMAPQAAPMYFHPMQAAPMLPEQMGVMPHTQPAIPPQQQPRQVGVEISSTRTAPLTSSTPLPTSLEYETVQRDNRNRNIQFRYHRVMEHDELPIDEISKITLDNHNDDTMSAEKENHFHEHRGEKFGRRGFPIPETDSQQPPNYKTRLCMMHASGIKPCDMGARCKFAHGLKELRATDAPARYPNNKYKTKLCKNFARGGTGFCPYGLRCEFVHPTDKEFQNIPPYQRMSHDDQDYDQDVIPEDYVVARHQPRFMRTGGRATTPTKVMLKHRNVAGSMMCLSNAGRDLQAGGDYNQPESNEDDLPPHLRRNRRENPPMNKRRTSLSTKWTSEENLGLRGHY

Serine/threonine-protein phosphatase, sequence (Q9BPW0 whole entry): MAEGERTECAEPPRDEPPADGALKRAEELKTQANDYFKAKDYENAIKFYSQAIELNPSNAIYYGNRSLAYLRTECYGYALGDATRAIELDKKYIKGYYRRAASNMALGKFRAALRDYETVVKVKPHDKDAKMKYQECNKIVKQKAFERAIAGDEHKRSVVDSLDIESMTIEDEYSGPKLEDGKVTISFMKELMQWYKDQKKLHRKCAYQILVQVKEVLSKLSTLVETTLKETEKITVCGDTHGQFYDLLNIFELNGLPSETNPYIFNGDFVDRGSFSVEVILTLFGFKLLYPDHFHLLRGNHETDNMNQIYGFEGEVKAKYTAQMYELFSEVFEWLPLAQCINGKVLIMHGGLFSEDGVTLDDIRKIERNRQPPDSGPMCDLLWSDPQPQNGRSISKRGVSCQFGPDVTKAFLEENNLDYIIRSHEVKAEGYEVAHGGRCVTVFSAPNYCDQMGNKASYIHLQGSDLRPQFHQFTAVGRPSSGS

Compound	IC50 [1]	IC50 [2]	EC50 (Protein RecA)	EC50 [3]
CCCOc1cc2c(C#N)c(N3CCCC3)nc(N)c2c(N)n1	9.93 µM (active)	4.45 µM (active)		
Cc1cc2nc3ccc(N(C)C)cc3[s+]c2cc1N [TOLONIUM CHLORIDE]			28 µM (active)	35.6 µM (active)
